Peptide text beside a SMILES is read from it.
Legend:
platelets (400 K/μL) = experiment: Magnetic resonance imaging of loaded platelet samples; details: positive control
Description: FIGS. 9A-B show a schematic (FIG. 9A) and magnetic resonance imaging (FIG. 9B).
FIGS. 9A-B show a schematic (FIG. 9A) and magnetic resonance imaging (FIG. 9B). […] Sample 1A included loading buffer and platelets (400 K/μL), sample 1B included loading buffer alone, sample 2A included loading buffer, Gd-DOTA-CPP-FITC, and platelets (400 K/μL), and sample 2B included loading buffer and Gd-DOTA-FITC-CPP only (washed) as another negative control.

platelets = experiment: Flow cytometry of FITC-TAT loading into platelets in the presence of platelet anti-aggregation compounds; type: cell-based; details: 100 μM FITC-TAT, 60 minutes, loading buffer, 37° C.
Description: FIG. 3 is a flow cytometry histogram of samples incubated with 100 μM FITC-TAT in the presence of platelet anti-aggregation compounds PGE1, GR144053, and eptifibatide.
Re-suspend platelets in loading buffer (Table 1) or desired incubation solution at a concentration of 500,000 platelets/μL and incubate at 37° C. with low frequency agitation on a rocker for up to 3 hours.
Wash platelets with loading buffer (Table 1) 3× to remove unloaded agents (e.g., FITC-TAT, FITC-labeled magnetic nanoparticles) and use the remaining sample for plate reader, flow cytometer, and/or microscope analysis.
The results for the above formulation are provided herein. A Tecan Infinite M200 Pro plate reader was used for quantification of MRI agent loading. A Novocyte flow cytometer was used to determine both MRI agent loading and percent of platelets effectively loaded. An Olympus microscope was used to visualize the loading into platelets.
Negative controls included 0 μM FITC-TAT in loading buffer and 50 μM fluorescein in loading buffer. All samples were incubated in loading buffer at 37° C. with low frequency agitation on a rocker.

What does the source list for `[Cl][Gd]([Cl])[Cl]` [GdCl3]?
detection by magnetic resonance imaging (platelets (400 K/μL); 100 μM): detection; detection by magnetic resonance imaging (platelets (400 K/μL); 100 mM): detection

How did the “effect of anti-aggregation compound on platelet loading / distribution of FITC-CPP (flow cytometry histogram)” value (platelets) turn out when `N=C(N)NCCCC[C@@H]1NC(=O)CCSSC[C@@H](C(N)=O)NC(=O)[C@@H]2CCCN2C(=O)[C@H](Cc2c[nH]c3ccccc23)NC(=O)[C@H](CC(=O)O)NC(=O)CNC1=O` [eptifibatide] (HELM PEPTIDE1{[O=C(CCS[*:3])[*:2]].[N=C(N)NCCCC[C@H](N[*:1])C(=O)[*:2]].G.D.W.P.C.[am]}$PEPTIDE1,PEPTIDE1,1:R3-7:R3$$$V2.0) was run?
The value was “little to no effect”.

How did the “effect of anti-aggregation compound on platelet loading / distribution of FITC-CPP (flow cytometry histogram)” value (platelets) turn out when `Cl.Cl.Cl.N=C(N)c1ccc(N2CCN(C3CCN(CC(=O)O)CC3)CC2)cc1` [GR144053] was run?
The value was “little to no effect”.

`CCCCC[C@H](O)/C=C/[C@H]1[C@H](O)CC(=O)[C@@H]1CCCCCCC(=O)O` [PGE1, Prostaglandin E1] was tested. Which “effect of anti-aggregation compound on platelet loading / distribution of FITC-CPP (flow cytometry histogram)” value (platelets) did it give?
The value was “improved platelet loading”.

From patent US20210189341A1, “PLATELET DIAGNOSTIC IMAGING AGENTS” (Cellphire, Inc., priority 2019, published 2021)
